Measured values taken from patent publication US9028856B2, “Synergistic pesticide compositions” (priority 2008, dated 2015).

Columns and labels:
[1] = type: physicochemical; details: classified from Log P
From the text: As used herein, a “partition coefficient” is defined as the ratio of concentrations of an un-ionized compound between solutions of water and octanol. To measure the partition coefficient of ionizable solutes, the pH of the aqueous phase is adjusted such that the predominant form of the compound is un-ionized. The logarithm of the ratio of the concentrations of the un-ionized solute in the solvents is referred to herein as log P or log K ow.
As noted herein, the octanol-water partition coefficient may be used to identify the cuticular penetration of a particular active ingredient. One factor in the relative speed through which any insecticide acts is the insecticide's ability to cross the insect cuticle. A determining factor for cuticle penetration is Log K ow, also known as Log P. Log K ow (Log P) is the octanol-water partition coefficient for a neutral molecule. Log P is used hereinfurther, but, as noted above, the term is synonymous with Log K ow. As previously noted, the cuticular penetration of any particular active ingredient as against a plant cuticle is not indicative of that same active ingredient's ability to penetrate an insect cuticle.
The cuticular penetration of a compound is classified as “INTERMEDIATE” when the Log P value is between about 2.0 and about 4.0.

[2] = octanol-water partition coefficient (Log K ow), Table 1; cited from earlier work
[3] = tested on: Blattella germanica (males, susceptible); experiment: Efficacy of EC formulations on glazed/unglazed tiles, continuous exposure; type: in vivo; details: 0.002% = 1 mg DTM/m^2 on glazed tiles, EC formulation
Protocol: (§1) All surfaces were provided with talcum-coated glass rings (diameter 9.5 cm, height 5.5 cm) one day later.
(§2) The test insects were anesthetized with CO2, 20 individuals were placed onto the treated surfaces and the glass ring was covered with wire gauze ring. […]
Each test consisted of at least one replicate and any additional replicates are noted. […]
(§3) Test Insects: Culex quinquefasciatus (adults, susceptible) (3 minutes exposure time according to USDA Petri Dish Method), Musca domestica (adults, susceptible and resistant), Blattella germanica (males, susceptible) (both: continuous exposure time)
(§4) Formulations: Insecticide with or without 10% Compound A (as EC), to be diluted with water (1 part formulation+9 parts water)
Application: 1 ml of the diluted formulations was applied by pipette onto glazed tiles (15×15 cm)
(§5) Evaluation: Knock down after 3, 9 (mosquitoes only), 15, and 30 minutes, 1, 2, 3, 4 and 24 hours (mortality)

[4] = tested on: Cimex lectularius (adults); experiment: Efficacy on glazed tiles (acetone solutions or EC formulations), continuous exposure; type: in vivo; details: on tiles, insecticide alone (imidacloprid 50 mg/m^2, Bendiocarb 50 mg/m^2, Ethiprole 10 mg/m^2, DTM 1 mg/m^2), no Compound A
Protocol: (§6) Test Insects: Culex quinquefasciatus (adults) (3 minutes exposure time according to USDA Petri Dish Method), Musca domestica (adults), susceptible and resistant strain, Blattella germanica (males), Cimex lectularius (adults) (all: continuous exposure time)
(§7) Application: The EC formulation (diluted with water 1:9) were applied as 0.85 ml solutions onto glazed tiles (15 cm×15 cm)
(§8) Evaluation: Knock down after 15, and 30 minutes, 1, 2, 3, 4, 6 and 24 hours (mortality)
Test Insects: Culex quinquefasciatus (adults) (3 minutes exposure time according to USDA Petri Dish Method), Cimex lectularius (adults), Acheta domesticus (middle nymphs) (both: continuous exposure time)
Application: The active ingredients were applied as 1 ml acetone solutions onto glazed tiles (15 cm×15 cm)
as §5
Test Insects: Culex quinquefasciatus (adults) (3 minutes exposure time according to USDA Petri Dish Method), Cimex lectularius (adults), (continuous exposure time)
Test Insects: Cimex lectularius, Culex quinquefasciatus, Musca domestica (all adults, susceptible strains)
Application: The active ingredients were applied as 1 ml acetone solutions onto glazed tiles (15 cm×15 cm), continuous exposure time

[5] = tested on: Musca domestica, susceptible strain WHO(N); experiment: Efficacy of formulations on surfaces (glazed/unglazed tiles), house flies, continuous exposure; type: in vivo; details: Table 114; 0.002% = 1 mg DTM/m^2 on glazed tiles; EC formulation; continuous exposure
Protocol: A flat fan nozzle (type SS 8003-E) in a spray cabin was moved automatically over a defined area where the solutions were sprayed very evenly onto the surfaces. The formulation was mixed with water to give a concentration which corresponded to the desired quantity of a.i./m^2. A defined quantity of this solution was sprayed onto the area (nominal 350 liter/ha=0.77 ml per surface).
as §1
The test insects were anesthetized with CO2, 20 individuals were placed onto the treated surfaces and the glass ring was covered with wire gauze ring.
Knock down was determined after 15 and 30′, 1, 2, 4 and 6 hours, mortality after 1 day exposure.
(§9) Each test consisted of at least one replicate and any additional replicates are noted.
(§10) Test Insects: House flies (Musca domestica) of both sexes, susceptible strain WHO(N) and resistant strain Reichswald
(§11) Evaluation: Mortality was evaluated cumulatively at different times. […]
as §6, §7, §8, §3, §4
Evaluation: Knock down after 3, 9 (mosquitoes only), 15, and 30 minutes, 1, 2, 3, 4 and 24 hours (mortality) […]

[6] = tested on: Musca domestica, resistant strain Reichswald; experiment: as above; type: in vivo; details: Table 115; 0.002% = 1 mg DTM/m^2 on glazed tiles; EC formulation; continuous exposure
Protocol: as §1, §2, §9, §10, §11, §6, §7

[7] = tested on: tropical house mosquito Culex quinquefasciatus (adults, 3 days old); experiment: Efficacy of formulations on surfaces (glazed/unglazed tiles, plywood), ten 3 day old mosquitoes, 3 min exposure; type: in vivo; details: 0.002% = 1 mg DTM/m^2 on glazed tiles; EC formulation; 3 minutes exposure
Protocol: The ingredients were diluted in acetone to give a concentration which corresponds to the desired quantity of a.i./m^2. A 1 ml quantity of the solution was applied by pipette onto the 15 cm×15 cm surfaces without treating the outer edge of 1 cm.
(§12) Ten 3 day old Culex quinquefasciatus mosquitoes were exposed to each treatment for 3 minutes under a perforated petri dish, and then a clean untreated white paper index card was moved between treated surface and petri dish. A water-soaked cotton pad was applied immediately after.
Each test consisted of three replicates (three batches of ten mosquitoes were exposed for three minutes to the same surface, each one hour later), of which the mean values are calculated.
The test insects were Culex quinquefasciatus (adults, 3 days old). The compositions were evaluated for their ability to provide effective knock down after 3, 9, 15, and 30 minutes, 1, 2, 3, 4 and 24 hours (mortality). The experiments were performed in triplicate on glazed tile, but not repeated on wood.
Test Insects are Culex quinquefasciatus (adults, 3 days old). The Application provides the technical compounds were dissolved in acetone and applied as 1 ml solutions onto glazed tiles (15 cm×15 cm). An evaluation is provided at knock down after 3, 9, 15, and 30 minutes, 1, 2, 3, 4 and 24 hours (mortality). There are 3 replicates.
Test Insects: Culex quinquefasciatus (adults, 3 days old)
Application: The technical compounds were dissolved in acetone and applied as 1 ml solutions onto glazed tiles (15 cm×15 cm).
Evaluation: Knock down after 3, 9, 15, and 30 minutes, 1, 2, 3, 4 and 24 hours (mortality) […]
Application: The active ingredients were applied as 1 ml acetone solutions onto glazed tiles (15 cm×15 cm) […]
as §12, with “For the mosquitoes, the USDA Petri Dish Method is used. Ten” for “Ten”, “are” for “were”, “dish” for “dish,”, “is” for “was”, “after. […]” for “after.”

In the case of `CCc1nn(C)c(C(=O)NCc2ccc(C(C)(C)C)cc2)c1Cl` [tebufenpyrad], the “Likelihood of Direct Insect Cuticular Penetration” value (“Likelihood” below) [1] is listed as “Fast (classified as “FAST” when it has a Log P value of about >4.0)” and the “Log P” value [2] is listed as 4.9.
For `C/C(=N\C#N)N(C)Cc1ccc(Cl)nc1` [acetamiprid], the “Likelihood” value [1] is listed as “Slow (classified as “SLOW” when the compound has a Log P value of about <2.0)” and the “Log P” value [2] is listed as 0.8.
In the case of `N#C/N=C1\SCCN1Cc1ccc(Cl)nc1` [thiacloprid], the “Likelihood” value [1] is listed as “Slow (classified as “SLOW” when the compound has a Log P value of about <2.0)” and the “Log P” value [2] is listed as 1.3.
For spiromesifen, the “Likelihood” value [1] is listed as “Fast (classified as “FAST” when it has a Log P value of about >4.0)” and the “Log P” value [2] is listed as 4.6.
In the case of spinosad, the “Likelihood” value [1] is listed as “Intermediate-Fast” and the “Log P” value [2] is listed as 2.8-5.2.
For `O=C(NC(=O)c1c(F)cccc1F)Nc1cc(Cl)c(OC(F)(F)C(F)C(F)(F)F)c(Cl)c1F` (stereo not shown) [noviflumuron], the “Likelihood” value [1] is given as “Fast (classified as “FAST” when it has a Log P value of about >4.0)” and the “Log P” value [2] is given as 4.9.
In the case of `COC(=O)N(C(=O)N1CO[C@@]2(C(=O)OC)Cc3cc(Cl)ccc3C2=N1)c1ccc(OC(F)(F)F)cc1` [indoxacarb], the “Likelihood” value [1] is given as “Fast (classified as “FAST” when it has a Log P value of about >4.0)” and the “Log P” value [2] is given as 4.6.
For `CN/C(=N\[N+](=O)[O-])NCc1cnc(Cl)s1` [clothianidin], the “Likelihood” value [1] is given as “Slow (classified as “SLOW” when the compound has a Log P value of about <2.0)” and the “Log P” value [2] is given as 0.7.
In the case of pyrethrin, the “Likelihood” value [1] is given as “Fast (classified as “FAST” when it has a Log P value of about >4.0)” and the “Log P” value [2] is given as 4.3.
For `CCNS(=O)(=O)C(F)(F)C(F)(F)C(F)(F)C(F)(F)C(F)(F)C(F)(F)C(F)(F)C(F)(F)F` [sulfluramid], the “Likelihood” value [1] is listed as “Fast (classified as “FAST” when it has a Log P value of about >4.0)” and the “Log P” value [2] is listed as >6.8.
For `CCOC(=O)NCCOc1ccc(Oc2ccccc2)cc1` [fenoxycarb], the “Likelihood” value [1] is listed as “Fast (classified as “FAST” when it has a Log P value of about >4.0)” and the “Log P” value [2] is listed as 4.1.
For `CS/C(C)=N\OC(=O)N(C)SN(C)C(=O)O/N=C(\C)SC` [thiodicarb], the “Likelihood” value [1] is listed as “Slow (classified as “SLOW” when the compound has a Log P value of about <2.0)” and the “Log P” value [2] is listed as 1.6.
In the case of `Cc1c(COC(=O)[C@@H]2[C@H](/C=C(\Cl)C(F)(F)F)C2(C)C)cccc1-c1ccccc1` (racemic) [bifenthrin], the “Likelihood” value [1] is given as “Fast (classified as “FAST” when it has a Log P value of about >4.0)” and the “Log P” value [2] is given as 6.0.
For `CC(COc1ccc(Oc2ccccc2)cc1)Oc1ccccn1` (stereo not shown) [pyriproxifen], the “Likelihood” value [1] is listed as “Fast (classified as “FAST” when it has a Log P value of about >4.0)” and the “Log P” value [2] is listed as 5.4.
In the case of `CN1COCN(Cc2cnc(Cl)s2)/C1=N\[N+](=O)[O-]` [thiamethoxam], the “Likelihood” value [1] is listed as “Slow (classified as “SLOW” when the compound has a Log P value of about <2.0)” and the “Log P” value [2] is listed as 0.1.
With `CC1(C)[C@H](C(=O)O[C@H](C#N)c2cccc(Oc3ccccc3)c2)[C@@H]1C=C(Br)Br` [DTM] the “% KD and Mortality 15′” value [3] was 0%, the “% KD and Mortality 30′” value [3] was 40% and the “% KD and Mortality 1 h” value [3] was 100%. The “% KD and Mortality 2 h” value [3] was 100%, the “% KD and Mortality 3 h” value [3] was 100% and the “% KD and Mortality 4 h” value [3] was 100%. For the same compound, the “% KD and Mortality 6 h” value [3] was 100%, the “% KD and Mortality 24 h” value [3] was 100% and the “% KD and Mortality” value ([4]; 15′) was 0%. The “% KD and Mortality” value ([4]; 30′) was 0%, the “% KD and Mortality” value ([4]; 1 h) was 0% and the “% KD and Mortality” value ([4]; 2 h) was 10%. For the same compound, the “% KD and Mortality” value ([4]; 3 h) was 80%, the “% KD and Mortality” value ([4]; 4 h) was 100% and the “% KD and Mortality” value ([4]; 6 h) was 100%. For the same compound, the “% KD and Mortality” value ([4]; 24 h) was 100%, the “% KD and Mortality 15′” value [5] was 10% and the “% KD and Mortality 30′” value [5] was 85%. The “% KD and Mortality 1 h” value [5] was 95%, the “% KD and Mortality 2 h” value [5] was 100% and the “% KD and Mortality 3 h” value [5] was 100%. The “% KD and Mortality 4 h” value [5] was 100%, the “% KD and Mortality 6 h” value [5] was 100% and the “% KD and Mortality 24 h” value [5] was 100%. For the same compound, the “% KD and Mortality 15′” value [6] was 0%, the “% KD and Mortality 30′” value [6] was 0% and the “% KD and Mortality 1 h” value [6] was 0%. The “% KD and Mortality 2 h” value [6] was 0%, the “% KD and Mortality 3 h” value [6] was 0% and the “% KD and Mortality 4 h” value [6] was 0%. For the same compound, the “% KD and Mortality 6 h” value [6] was 0%, the “% KD and Mortality 24 h” value [6] was 5% and the “% KD and Mortality 15′” value [7] was 0%. The “% KD and Mortality 30′” value [7] was 0%, the “% KD and Mortality 1 h” value [7] was 10% and the “% KD and Mortality 2 h” value [7] was 10%. For the same compound, the “% KD and Mortality 3 h” value [7] was 10%, the “% KD and Mortality 4 h” value [7] was 10% and the “% KD and Mortality 6 h” value [7] was 20%. The “% KD and Mortality 24 h” value [7] was 80%.
